Laboratory results from US20230111310A1, “CARBOXYLIC ACID DERIVATIVE-SUBSTITUTED IMINO ARYL COMPOUND, PREPARATION METHOD THEREFOR, HERBICIDAL COMPOSITION AND USE THEREOF” (Qingdao Kingagroot Chemical Compound Co., Ltd., priority 2020, published 2023).

Experiments:
Assay in all cases: Weeding effect in post-emergence stage
Format in all cases: in vivo
Eleusine indica = settings: for Weeding effect in post-emergence stage, Eleusine indica: level of fresh weight growth control rate; for Weeding effect in post-emergence stage, Eleusine indica (level): fresh weight control rate level
Outline: (§1)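 Pot-grown weeds were sprayed at the 2-3 leaf stage, 2 weeks after sowing, with compound in acetone plus Tween 80 and 1.5 liter/ha methyl oleate emulsifiable concentrate, diluted in water. Doses were 500, 250, 125, 60, 30, 15, 7.5 g/ha. Growth control was scored after 3 weeks in greenhouse; mean of three replicates.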

Digitaria sanguinalis = settings: for Weeding effect in post-emergence stage, Digitaria sanguinalis: level of fresh weight growth control rate; for Weeding effect in post-emergence stage, Digitaria sanguinalis (level): fresh weight control rate level
Outline: as §1

Alopecurus japonicus = settings: for Weeding effect in post-emergence stage, Alopecurus japonicus: level of fresh weight growth control rate; for Weeding effect in post-emergence stage, Alopecurus japonicus (level): fresh weight control rate level
Outline: as §1

Setaria viridis = settings: for Weeding effect in post-emergence stage, Setaria viridis: level of fresh weight growth control rate; for Weeding effect in post-emergence stage, Setaria viridis (level): fresh weight control rate level
Outline: as §1

Abutilon theophrasti = settings: for Weeding effect in post-emergence stage, Abutilon theophrasti: level of fresh weight growth control rate; for Weeding effect in post-emergence stage, Abutilon theophrasti (level): fresh weight control rate level
Outline: as §1

Echinochloa crusgalli = settings: for Weeding effect in post-emergence stage, Echinochloa crusgalli: level of fresh weight growth control rate; for Weeding effect in post-emergence stage, Echinochloa crusgalli (level): fresh weight control rate level
Outline: as §1

With `CCOC(=O)COC(=O)C(C)O/N=C/c1cc(-n2c(=O)cc(C(F)(F)F)n(C)c2=O)c(F)cc1Cl` (stereo not drawn) [Compound 239] the “Weeding effect in post-emergence stage, Eleusine indica” value (Eleusine indica; Dose 15 g/ha) was 5 (Level 5: growth control rate is above 85%), the “Weeding effect in post-emergence stage, Digitaria sanguinalis” value (Digitaria sanguinalis; Dose 15 g/ha) was 5 (Level 5: growth control rate is above 85%) and the “Weeding effect in post-emergence stage, Alopecurus japonicus” value (Alopecurus japonicus; Dose 15 g/ha) was 5 (Level 5: growth control rate is above 85%). For the same compound, the “Weeding effect in post-emergence stage, Setaria viridis” value (Setaria viridis; Dose 15 g/ha) was 5 (Level 5: growth control rate is above 85%), the “Weeding effect in post-emergence stage, Abutilon theophrasti” value (Abutilon theophrasti; Dose 15 g/ha) was 5 (Level 5: growth control rate is above 85%) and the “Weeding effect in post-emergence stage, Echinochloa crusgalli” value (Echinochloa crusgalli; Dose 15 g/ha) was 5 (Level 5: growth control rate is above 85%).

`CCCCOC(=O)C(C)O/N=C/c1cc(-n2c(=O)cc(C(F)(F)F)n(C)c2=O)c(F)cc1Cl` (racemic) [Compound 200] was tested, and the “Weeding effect in post-emergence stage, Eleusine indica” value (Eleusine indica; Dose 15 g/ha) was 5 (Level 5: growth control rate is above 85%), the “Weeding effect in post-emergence stage, Digitaria sanguinalis” value (Digitaria sanguinalis; Dose 15 g/ha) was 5 (Level 5: growth control rate is above 85%) and the “Weeding effect in post-emergence stage, Alopecurus japonicus” value (Alopecurus japonicus; Dose 15 g/ha) was 5 (Level 5: growth control rate is above 85%). For the same compound, the “Weeding effect in post-emergence stage, Setaria viridis” value (Setaria viridis; Dose 15 g/ha) was 5 (Level 5: growth control rate is above 85%), the “Weeding effect in post-emergence stage, Abutilon theophrasti” value (Abutilon theophrasti; Dose 15 g/ha) was 5 (Level 5: growth control rate is above 85%) and the “Weeding effect in post-emergence stage, Echinochloa crusgalli” value (Echinochloa crusgalli; Dose 15 g/ha) was 5 (Level 5: growth control rate is above 85%).

`C/C(=N/C(=O)[C@@H](C)O/N=C/c1cc(-n2c(=O)cc(C(F)(F)F)n(C)c2=O)c(F)cc1Cl)c1ccccc1` [453(R)] was tested, and the “Weeding effect in post-emergence stage, Eleusine indica (level)” value (from here on “Weeding effect … Eleusine indica (level)”) (Eleusine indica; Dose 30 g/ha) was 5 (Level 5: growth control rate is above 85%), the “Weeding effect in post-emergence stage, Digitaria sanguinalis (level)” value (shortened to “Weeding effect … Digitaria sanguinalis (level)”) (Digitaria sanguinalis; Dose 30 g/ha) was 5 (Level 5: growth control rate is above 85%) and the “Weeding effect in post-emergence stage, Alopecurus japonicus (level)” value (from here on “Weeding effect … Alopecurus japonicus (level)”) (Alopecurus japonicus; Dose 30 g/ha) was 5 (Level 5: growth control rate is above 85%). The “Weeding effect in post-emergence stage, Setaria viridis (level)” value (“Weeding effect … Setaria viridis (level)” below) (Setaria viridis; Dose 30 g/ha) was 5 (Level 5: growth control rate is above 85%), the “Weeding effect in post-emergence stage, Abutilon theophrasti (level)” value (from here on “Weeding effect … Abutilon theophrasti (level)”) (Abutilon theophrasti; Dose 30 g/ha) was 5 (Level 5: growth control rate is above 85%) and the “Weeding effect in post-emergence stage, Echinochloa crusgalli (level)” value (“Weeding effect … Echinochloa crusgalli (level)” below) (Echinochloa crusgalli; Dose 30 g/ha) was 5 (Level 5: growth control rate is above 85%).

With `CCOC(=O)C(F)O/N=C/c1cc(-n2c(=O)cc(C(F)(F)F)n(C)c2=O)c(F)cc1Cl` (stereo not drawn) [Compound 313] the “Weeding effect in post-emergence stage, Eleusine indica” value (Eleusine indica; Dose 15 g/ha) was 5 (Level 5: growth control rate is above 85%), the “Weeding effect in post-emergence stage, Digitaria sanguinalis” value (Digitaria sanguinalis; Dose 15 g/ha) was 5 (Level 5: growth control rate is above 85%) and the “Weeding effect in post-emergence stage, Alopecurus japonicus” value (Alopecurus japonicus; Dose 15 g/ha) was 5 (Level 5: growth control rate is above 85%). For the same compound, the “Weeding effect in post-emergence stage, Setaria viridis” value (Setaria viridis; Dose 15 g/ha) was 5 (Level 5: growth control rate is above 85%), the “Weeding effect in post-emergence stage, Abutilon theophrasti” value (Abutilon theophrasti; Dose 15 g/ha) was 5 (Level 5: growth control rate is above 85%) and the “Weeding effect in post-emergence stage, Echinochloa crusgalli” value (Echinochloa crusgalli; Dose 15 g/ha) was 5 (Level 5: growth control rate is above 85%).

With `COC(=O)C(C)O/N=C/c1cc(-n2c(=S)cc(C(F)(F)F)n(C)c2=S)c(F)cc1Cl` (racemic) [Compound 351] the “Weeding effect in post-emergence stage, Eleusine indica” value (Eleusine indica; Dose 60 g/ha) was 5 (Level 5: growth control rate is above 85%), the “Weeding effect in post-emergence stage, Digitaria sanguinalis” value (Digitaria sanguinalis; Dose 60 g/ha) was 5 (Level 5: growth control rate is above 85%) and the “Weeding effect in post-emergence stage, Alopecurus japonicus” value (Alopecurus japonicus; Dose 60 g/ha) was 5 (Level 5: growth control rate is above 85%). For the same compound, the “Weeding effect in post-emergence stage, Setaria viridis” value (Setaria viridis; Dose 60 g/ha) was 5 (Level 5: growth control rate is above 85%), the “Weeding effect in post-emergence stage, Abutilon theophrasti” value (Abutilon theophrasti; Dose 60 g/ha) was 5 (Level 5: growth control rate is above 85%) and the “Weeding effect in post-emergence stage, Echinochloa crusgalli” value (Echinochloa crusgalli; Dose 60 g/ha) was 5 (Level 5: growth control rate is above 85%).

For `COC(=O)C(C)SN=Cc1cc(-n2c(=O)cc(C(F)(F)F)n(C)c2=O)c(F)cc1Cl` (stereo not drawn) [Compound 730], the “Weeding effect … Eleusine indica (level)” value (Eleusine indica; Dose 15 g/ha) was 5 (Level 5: growth control rate is above 85%), the “Weeding effect … Digitaria sanguinalis (level)” value (Digitaria sanguinalis; Dose 15 g/ha) was 5 (Level 5: growth control rate is above 85%) and the “Weeding effect … Alopecurus japonicus (level)” value (Alopecurus japonicus; Dose 15 g/ha) was 5 (Level 5: growth control rate is above 85%). For the same compound, the “Weeding effect … Setaria viridis (level)” value (Setaria viridis; Dose 15 g/ha) was 5 (Level 5: growth control rate is above 85%), the “Weeding effect … Abutilon theophrasti (level)” value (Abutilon theophrasti; Dose 15 g/ha) was 5 (Level 5: growth control rate is above 85%) and the “Weeding effect … Echinochloa crusgalli (level)” value (Echinochloa crusgalli; Dose 15 g/ha) was 5 (Level 5: growth control rate is above 85%).

In the case of `CCSC(=O)C(C)O/N=C/c1cc(-n2c(=O)cc(C(F)(F)F)n(C)c2=O)c(F)cc1Cl` (stereo not drawn) [Compound 398], the “Weeding effect … Eleusine indica (level)” value (Eleusine indica; Dose 15 g/ha) was 5 (Level 5: growth control rate is above 85%), the “Weeding effect … Digitaria sanguinalis (level)” value (Digitaria sanguinalis; Dose 15 g/ha) was 5 (Level 5: growth control rate is above 85%) and the “Weeding effect … Alopecurus japonicus (level)” value (Alopecurus japonicus; Dose 15 g/ha) was 5 (Level 5: growth control rate is above 85%). The “Weeding effect … Setaria viridis (level)” value (Setaria viridis; Dose 15 g/ha) was 5 (Level 5: growth control rate is above 85%), the “Weeding effect … Abutilon theophrasti (level)” value (Abutilon theophrasti; Dose 15 g/ha) was 5 (Level 5: growth control rate is above 85%) and the “Weeding effect … Echinochloa crusgalli (level)” value (Echinochloa crusgalli; Dose 15 g/ha) was 5 (Level 5: growth control rate is above 85%).
